According to PMC10725991, “Kaempferol is a novel antiviral agent against channel catfish virus infection through blocking viral attachment and penetration in vitro” (Frontiers in Veterinary Science, 2023):

Columns and labels:
[1] = system: CCV-induced CPE in CCO cells; test: CPE reduction assay; assay type: cell-based, Channel catfish virus (CCV, Ictalurid herpesvirus 1)
Method: To test the anti-CCV effect of tested compounds in the preliminary screening, CCO cells were seeded in 24-well plates and cultured to reach approximately 90% confluence in each well at 28°C. Subsequently, the cells were infected with the CCV at 10^3 TCID50/ml at 28°C for 1 h. After that, the cell culture medium was replaced using an isopycnic DMEM medium containing the maximum safe concentration of indicated compounds. CCV-infected cells treated with DMSO served as a negative control, whereas CCV-infected cells treated with acyclovir (2.5 μg/mL) served as a positive control ([33]). After 36 h treatment, cell lysates were collected to test the CCV gene expression by the RT-qPCR, and the percentage inhibition of CCV infection by individual compound was calculated. According to the percentage inhibition results, we further detected the antiviral activity of kaempferol at maximum safe concentration by viral cytopathic effects (CPE) and western blot analysis.
For analyzing the CPE reduction of viral infected CCO cells by kaempferol, the CCO cells were seeded in 24-well plates and cultured overnight at 28°C before infection. Then, the monolayer cells were infected with CCV at 10^3 TCID50/ml for 1 h. Subsequently, the infected cells were treated with kaempferol at different concentrations (2.5, 5, 7.5, 10, 12.5, and 15 μg/mL), respectively. […]

[2] = system: CCO cells; test: Compounds cytotoxicity assay (CCK-8 cell viability); assay type: cell-based; details: channel catfish, 72 h
Method: The cytotoxicity effects of the selected compounds were detected in CCO cells by the cell viability assay. In brief, the CCO cells were seeded in 96-well plates and cultured to reach approximately 90% confluence in each well at 28°C. Subsequently, the monolayer cells were exposed to a maintenance medium with the tested compounds at different concentrations or DMSO for 72 h. Cell Counting Kit-8 (Beyotime, China) was used to measure the cell viability according to the manufacturer’s protocol after 72 h incubation. The optical density at 450 nm was measured using a Spark microplate reader (TECAN, Switzerland). Then, the maximum safe concentration (≥ 90% cell survived, SC90) of compounds to CCO cells was calculated according to the cell viability.
All data were analyzed with GraphPad Prism 8.0. Viral titers were log10 transformed prior to statistical analyses. The SC90 values were calculated using probit analysis. The data are expressed as the arithmetic mean ± standard deviation (SD) and were analyzed by one-way ANOVA with multiple comparisons test. Statistical significance was defined as *p < 0.05, **p < 0.01.
Figure 1 Cytotoxicity assay. The CCO cells were treated with 12 tested compounds with different concentrations in a 96-well plate for 72 h, and then the cell viability was measured by CCK-8. (A) Kaempferol, (B) Tannic acid, (C) P-Coumaric acid, (D) Magnolol, (E) Baicalein, (F) Genistein, (G) Mangiferin, (H) Rosmarinic acid, (I) Artemisinin, (J) Myricetin, (K) Ginkgolic acid, (L) Shikonin. Data represent mean ± SD normalized to values for DMSO treated group. The SC90 was analyzed and calculated using probit analysis. TEXT PRINTED IN THE PICTURE: (A) Kaempferol: SC90 = 47.53 μg/ml | (B) Tannic acid: SC90 = 90.02 μg/ml | (C) P-Coumaric acid: SC90 ≥500 μg/ml | (D) Magnolol: SC90 = 10.02 μg/ml | (E) Baicalein: SC90 = 29.73 μg/ml | (F) Genistein: SC90 = 13.66 μg/ml | (G) Mangiferin: SC90 ≥500 μg/ml | (H) Rosmarinic acid: SC90 = 46.37 μg/ml | (I) Artemisinin: SC90 ≥500 μg/ml | (J) Myricetin: SC90 = 346.19 μg/ml | (K) Ginkgolic acid: SC90 = 10.89 μg/ml | (L) Shikonin: SC90 = 54.44 μg/ml DOUBTS OF THE COPYIST ABOUT THIS PICTURE: All SC90 values are in small print, so 3, 5, 6, 8 and 9 are hard to tell apart / Kaempferol, SC90: 47.53 (5 or 3 uncertain) / Tannic acid, SC90: 90.02 (9 or 8 uncertain) / Baicalein, SC90: 29.73 (9 or 3 uncertain) / Genistein, SC90: 13.66 (3 and 6 uncertain) / Rosmarinic acid, SC90: 46.37 (6 and 3 uncertain) / Myricetin, SC90: 346.19 (3, 6 and 9 uncertain) / Ginkgolic acid, SC90: 10.89 (8 and 9 uncertain) / Shikonin, SC90: 54.44 (5 uncertain) / P-Coumaric acid, Mangiferin, Artemisinin, SC90: sign ≥ or >; 500 (5 uncertain)

For O=c1c(O)c(-c2ccc(O)cc2)oc2cc(O)cc(O)c12 [Kaempferol], the “CCV-induced CPE” value ([1]; kaempferol 10–15 μg/mL, until 36 h) was “no obvious CPE”, the “CPE induced by CCV infection” value ([1]; maximum safe concentration (47.53 μg/mL), 36 h post-infection) was “significantly reduced CPE” and the “SC90 (maximum safe concentration, ≥ 90% cell survived)” value [2] was 47.53 µg/mL.
